# Laboratory results published in PubChem BioAssay AID2060604 (Molecular Pharmacology Branch, DTP, NCI, 2025).
# “And” between values parts separate entries of the source, which are not always exact repeats. Equal entries are not always repeated.
# Test system: 379773-124-R-J2-PDC complex spheroids, viability % test/control
# Experiment: Anticancer human tumor 379773-124-R-J2-PDC patient-derived endometrial carcinoma cell line growth inhibition [CLK]
# Details: for viability, T/C: stronger effect = lower value
# How it was run: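 Multi-cell-type spheroids combined patient-derived tumor cells with HUVEC endothelial cells and human mesenchymal stem cells. Paired agents were dosed in half-log steps down from about clinical Cmax, or from 10 microM where Cmax was unknown.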
# [1] = curve of first compound, second compound 0.0316 µM
# [2] = curve of first compound, second compound 0.1 µM
# [3] = curve of first compound, second compound 0.316 µM
# [4] = curve of first compound, second compound 1 µM
# [5] = curve of first compound, second compound 3.16 µM
# [6] = curve of first compound, second compound 10 µM
# 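Note: compound exposure lasted seven days before the viability readout.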
# 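Throughout, for viability, T/C: 100% = DMSO vehicle control wells.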
compound,measurement,setting,value
COC1C=CCC(C)C(C)S(=O)(=O)NC(=O)c2ccc3c(c2)N(CC2CCC21)CC1(CCCc2cc(Cl)ccc21)CO3 (stereo unspecified) + CN1CCN(c2cc(C(=O)Nc3cc4cc(-c5cnn(C)c5)ccc4cn3)ccn2)CC1,IC50,[1],4970 nM
same,IC50,[2],4750 nM
same,IC50,[3],< 31.6 nM
same,IC50,[4],< 31.6 nM
same,IC50,[5],< 31.6 nM
same,IC50,[6],< 31.6 nM
same,"viability, T/C","second compound 0.0316 µM, first compound 0.0316 µM",87.2%
same,"viability, T/C","second compound 0.0316 µM, first compound 0.1 µM",97.5%
same,"viability, T/C","second compound 0.0316 µM, first compound 0.316 µM",74.6%
same,"viability, T/C","second compound 0.0316 µM, first compound 1 µM",86%
same,"viability, T/C","second compound 0.0316 µM, first compound 3.16 µM",79.7%
same,"viability, T/C","second compound 0.0316 µM, first compound 10 µM",4.02%
same,"viability, T/C","second compound 0.1 µM, first compound 0.0316 µM",77.2%
same,"viability, T/C","second compound 0.1 µM, first compound 0.1 µM",73.5%
same,"viability, T/C","second compound 0.1 µM, first compound 0.316 µM",78.7%
same,"viability, T/C","second compound 0.1 µM, first compound 1 µM",78.2%
same,"viability, T/C","second compound 0.1 µM, first compound 3.16 µM",76%
same,"viability, T/C","second compound 0.1 µM, first compound 10 µM",2.54%
same,"viability, T/C","second compound 0.316 µM, first compound 0.0316 µM",24.8%
same,"viability, T/C","second compound 0.316 µM, first compound 0.1 µM",29.9%
same,"viability, T/C","second compound 0.316 µM, first compound 0.316 µM",30.9%
same,"viability, T/C","second compound 0.316 µM, first compound 1 µM",26.5%
same,"viability, T/C","second compound 0.316 µM, first compound 3.16 µM",29.6%
same,"viability, T/C","second compound 0.316 µM, first compound 10 µM",1.06%
same,"viability, T/C","second compound 1 µM, first compound 0.0316 µM",0.39%
same,"viability, T/C","second compound 1 µM, first compound 0.1 µM",0.17%
same,"viability, T/C","second compound 1 µM, first compound 0.316 µM",0.35%
same,"viability, T/C","second compound 1 µM, first compound 1 µM",0.18%
same,"viability, T/C","second compound 1 µM, first compound 3.16 µM",0.65%
same,"viability, T/C","second compound 1 µM, first compound 10 µM",0.11%
same,"viability, T/C","second compound 3.16 µM, first compound 0.0316 µM",0.12%
same,"viability, T/C","second compound 3.16 µM, first compound 0.1 µM",0.14%
same,"viability, T/C","second compound 3.16 µM, first compound 0.316 µM",1.19%
same,"viability, T/C","second compound 3.16 µM, first compound 1 µM",0.82%
same,"viability, T/C","second compound 3.16 µM, first compound 3.16 µM",0.11%
same,"viability, T/C","second compound 3.16 µM, first compound 10 µM",0.1%
same,"viability, T/C","second compound 10 µM, first compound 0.0316 µM",0.48%
same,"viability, T/C","second compound 10 µM, first compound 0.1 µM",0.72%
same,"viability, T/C","second compound 10 µM, first compound 0.316 µM",0.18%
same,"viability, T/C","second compound 10 µM, first compound 1 µM",1.21%
same,"viability, T/C","second compound 10 µM, first compound 3.16 µM",0.37%
same,"viability, T/C","second compound 10 µM, first compound 10 µM",0.23%
Nc1ccccc1NC(=O)c1ccc(CNC(=O)OCc2cccnc2)cc1,"viability, T/C",compound 0.0316 µM,108% and 92.4%
same,"viability, T/C",compound 0.1 µM,100% and 89.7%
same,"viability, T/C",compound 0.316 µM,95.6% and 104%
same,"viability, T/C",compound 1 µM,102% and 96.7%
same,"viability, T/C",compound 3.16 µM,47.8% and 45.6%
same,"viability, T/C",compound 10 µM,8.85% and 7.74%
same,IC50,curve of compound,3020 nM and 2860 nM
C=CC(=O)Nc1cc(Nc2nccc(-c3cn(C)c4ccccc34)n2)c(OC)cc1N(C)CCN(C)C + CN1CCN(c2cc(C(=O)Nc3cc4cc(-c5cnn(C)c5)ccc4cn3)ccn2)CC1,IC50,[1],> 300 nM
same,IC50,[2],> 300 nM
same,IC50,[3],< 0.949 nM
same,IC50,[4],< 0.949 nM
same,IC50,[5],< 0.949 nM
same,IC50,[6],< 0.949 nM
same,"viability, T/C","second compound 0.0316 µM, first compound 0.000949 µM",100%
same,"viability, T/C","second compound 0.0316 µM, first compound 0.003 µM",93.1%
same,"viability, T/C","second compound 0.0316 µM, first compound 0.00949 µM",99.4%
same,"viability, T/C","second compound 0.0316 µM, first compound 0.03 µM",84.7%
same,"viability, T/C","second compound 0.0316 µM, first compound 0.0949 µM",96%
same,"viability, T/C","second compound 0.0316 µM, first compound 0.3 µM",89.7%
same,"viability, T/C","second compound 0.1 µM, first compound 0.000949 µM",80.4%
same,"viability, T/C","second compound 0.1 µM, first compound 0.003 µM",74%
same,"viability, T/C","second compound 0.1 µM, first compound 0.00949 µM",102%
same,"viability, T/C","second compound 0.1 µM, first compound 0.03 µM",84%
same,"viability, T/C","second compound 0.1 µM, first compound 0.0949 µM",76.2%
same,"viability, T/C","second compound 0.1 µM, first compound 0.3 µM",84.6%
same,"viability, T/C","second compound 0.316 µM, first compound 0.000949 µM",20.2%
same,"viability, T/C","second compound 0.316 µM, first compound 0.003 µM",31.4%
same,"viability, T/C","second compound 0.316 µM, first compound 0.00949 µM",34%
same,"viability, T/C","second compound 0.316 µM, first compound 0.03 µM",34%
same,"viability, T/C","second compound 0.316 µM, first compound 0.0949 µM",29.6%
same,"viability, T/C","second compound 0.316 µM, first compound 0.3 µM",20.9%
same,"viability, T/C","second compound 1 µM, first compound 0.000949 µM",0.28%
same,"viability, T/C","second compound 1 µM, first compound 0.003 µM",1.12%
same,"viability, T/C","second compound 1 µM, first compound 0.00949 µM",1.77%
same,"viability, T/C","second compound 1 µM, first compound 0.03 µM",0.18%
same,"viability, T/C","second compound 1 µM, first compound 0.0949 µM",1.57%
same,"viability, T/C","second compound 1 µM, first compound 0.3 µM",0.13%
same,"viability, T/C","second compound 3.16 µM, first compound 0.000949 µM",1.26%
same,"viability, T/C","second compound 3.16 µM, first compound 0.003 µM",0.19%
same,"viability, T/C","second compound 3.16 µM, first compound 0.00949 µM",0.82%
same,"viability, T/C","second compound 3.16 µM, first compound 0.03 µM",1.59%
same,"viability, T/C","second compound 3.16 µM, first compound 0.0949 µM",0.11%
same,"viability, T/C","second compound 3.16 µM, first compound 0.3 µM",0.61%
same,"viability, T/C","second compound 10 µM, first compound 0.000949 µM",0.28%
same,"viability, T/C","second compound 10 µM, first compound 0.003 µM",0.45%
same,"viability, T/C","second compound 10 µM, first compound 0.00949 µM",0.46%
same,"viability, T/C","second compound 10 µM, first compound 0.03 µM",0.59%
same,"viability, T/C","second compound 10 µM, first compound 0.0949 µM",0.28%
same,"viability, T/C","second compound 10 µM, first compound 0.3 µM",0.26%
